Measurements from BindingDB's records for doi:10.1016/S0960-894X(00)80454-0 (1992).

Assay: In vitro binding affinity using [3H]LTB4 radioligand binding to leukotriene B4 receptor in human neutrophil binding assay

Structure (SMILES)	Ki
CCCc1c(OCCCOc2cc(O)c(OC)cc2CC)ccc2c1OC(C(=O)O)CC2 (configuration not stated) [7-[3-(2-Ethyl-5-hydroxy-4-methoxy-phenoxy)-propoxy]-8-propyl-chroman-2-carboxylic acid]	1.9 nM
CCCc1c(OCCCOc2cc(O)c(OCC)cc2CC)ccc2c1OC(C(=O)O)CC2 (configuration not stated) [7-[3-(4-Ethoxy-2-ethyl-5-hydroxy-phenoxy)-propoxy]-8-propyl-chroman-2-carboxylic acid]	3.5 nM
